In ChEMBL document CHEMBL4261648, “Lobaric acid and pseudodepsidones inhibit NF-κB signaling pathway by activation of PPAR-γ” (Bioorg Med Chem, 2018):

Assays:
U-937 [1] = assay: Antiinflammatory activity in human U937 cells assessed as inhibition of LPS-induced IL-1beta secretion preincubated for 2 hrs followed by LPS stimulation and measured after 24 hrs post LPS challenge by ELISA; format: functional
U-937 [2] = assay: Antiinflammatory activity in human U937 cells assessed as inhibition of LPS-induced IL-8 production preincubated for 2 hrs followed by LPS stimulation and measured after 24 hrs post LPS challenge by ELISA; format: functional
[3] = target: Toll-like receptor 4 (Homo sapiens) (UniProt O00206); assay: Inhibition of TLR4 in human U937-3xkappaB-LUC cells assessed as inhibition of Aggregatibacter actinomycetemcomitans LPS-induced NF-kappaB activation preincubated for 30 mins followed by LPS stimulation and measured after 6 hrs post LPS challenge by Bright-Glo luciferase reporter gene assay relative to control
Chain of Toll-like receptor 4 (Homo sapiens) (O00206 whole entry): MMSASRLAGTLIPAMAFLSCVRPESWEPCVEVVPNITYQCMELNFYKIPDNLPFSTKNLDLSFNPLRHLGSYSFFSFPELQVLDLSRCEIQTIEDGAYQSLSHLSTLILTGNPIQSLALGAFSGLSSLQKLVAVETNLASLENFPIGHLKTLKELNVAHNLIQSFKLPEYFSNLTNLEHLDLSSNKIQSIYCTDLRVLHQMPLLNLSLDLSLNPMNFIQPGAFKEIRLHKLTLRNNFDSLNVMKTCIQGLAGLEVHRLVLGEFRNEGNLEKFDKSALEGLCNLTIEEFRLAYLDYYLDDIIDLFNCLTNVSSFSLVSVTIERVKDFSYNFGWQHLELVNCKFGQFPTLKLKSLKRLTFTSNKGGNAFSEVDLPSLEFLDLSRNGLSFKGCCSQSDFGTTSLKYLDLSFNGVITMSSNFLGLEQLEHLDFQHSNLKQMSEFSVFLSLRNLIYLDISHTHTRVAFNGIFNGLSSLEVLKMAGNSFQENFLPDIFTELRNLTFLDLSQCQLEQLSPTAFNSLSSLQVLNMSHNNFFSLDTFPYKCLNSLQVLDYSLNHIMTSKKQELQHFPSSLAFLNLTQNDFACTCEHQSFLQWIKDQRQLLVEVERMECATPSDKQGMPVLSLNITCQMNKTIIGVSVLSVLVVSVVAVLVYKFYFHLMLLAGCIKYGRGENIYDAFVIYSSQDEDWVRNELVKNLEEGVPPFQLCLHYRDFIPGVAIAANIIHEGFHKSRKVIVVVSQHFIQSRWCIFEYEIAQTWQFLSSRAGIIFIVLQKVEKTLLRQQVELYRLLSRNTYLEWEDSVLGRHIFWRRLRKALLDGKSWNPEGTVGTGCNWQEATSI

U-937 [4] = assay: Antiinflammatory activity in human U937 cells assessed as inhibition of LPS-induced IL-6 production preincubated for 2 hrs followed by LPS stimulation and measured after 24 hrs post LPS challenge by ELISA; format: functional
U-937 [5] = assay: Antiinflammatory activity in PMA-differentiated human U937 cells assessed as inhibition of LPS-induced TNFalpha secretion preincubated for 2 hrs followed by LPS stimulation and measured after 24 hrs post LPS challenge by ELISA relative to control; format: functional

SMILES: Cc1ccc(S(=O)(=O)/C=C/C#N)cc1
- inhibition (INH) (U-937 [1]): 95.9%
- inhibition (INH) (U-937 [2]): 99.1%
- inhibition [3]: 99.3%
- inhibition (INH) (U-937 [4]): 99.2%
- inhibition (INH) (U-937 [5]): 99.5%
